Laboratory results from patent US20220348595A1, “COMPOUNDS AND METHODS FOR THE TARGETED DEGRADATION OF ESTROGEN RECEPTORS” (Endotarget Inc., priority 2021, published 2022).
pIC50: −log10 of the molar value.

What was measured:
Format in all cases: cell-based
ER = molecular target: T1, ER (Homo sapiens, UniProt P03372); assay: ER antagonism (T47D ERE luciferase), T47d-kb-Luc cells; conditions: read-out: IC50 (ER antagonistm)
T1 construct: endogenous in cells; host or cells: T47d-kb-Luc (T47D stably transfected with a luciferase reporter gene only)
T1 sequence (P03372 1-595): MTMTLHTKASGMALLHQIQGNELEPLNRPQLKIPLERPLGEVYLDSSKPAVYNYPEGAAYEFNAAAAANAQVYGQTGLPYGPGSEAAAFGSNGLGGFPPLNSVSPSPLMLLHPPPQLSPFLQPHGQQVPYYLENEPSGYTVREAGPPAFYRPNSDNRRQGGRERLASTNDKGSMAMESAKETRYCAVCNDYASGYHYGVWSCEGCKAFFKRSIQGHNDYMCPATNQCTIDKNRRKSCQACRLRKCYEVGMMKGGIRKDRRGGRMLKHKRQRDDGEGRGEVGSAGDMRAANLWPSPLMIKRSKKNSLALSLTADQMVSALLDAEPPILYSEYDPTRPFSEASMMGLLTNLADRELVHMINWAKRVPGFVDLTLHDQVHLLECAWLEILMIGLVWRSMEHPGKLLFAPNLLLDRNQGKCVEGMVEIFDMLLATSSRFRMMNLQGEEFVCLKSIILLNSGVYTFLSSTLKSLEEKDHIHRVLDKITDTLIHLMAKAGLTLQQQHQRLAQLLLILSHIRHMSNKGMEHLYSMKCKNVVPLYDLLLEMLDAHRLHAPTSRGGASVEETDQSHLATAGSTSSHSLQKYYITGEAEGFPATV
Procedure, shortened: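 Five sample concentrations, each in quadruplicate and repeated in at least three experiments, were tested for blocking of estradiol activity. Values were expressed relative to the estradiol control. The cell system was the T47d-kb-Luc stable breast cancer line.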

[1] = test system: MCF-7 breast cancer cells; assay: MCF-7 proliferation / cell viability assay; conditions: Homo sapiens, MCF7; MCF-7 proliferation with 0.1 nM 17-beta estradiol; read-out: IC50 (anti-proliferation)
Procedure, shortened: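 Survival ratio, with vehicle (DMSO) as 100%, was derived from Coulter-counted viable cell numbers. Cells were grown in 5% FBS DMEM and dosed for 5 days across six concentrations between 10^−10 M and 10^−5 M.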

ERα = molecular target: T2, ERα (Homo sapiens, UniProt P03372); assay: ER degradation in MCF-7 cells (Western blot); conditions: for DC50: ER degradation, 24 hours; for Dmax: MCF7, Maximal ER degradation, read-out: Dmax
T2 construct: endogenous in cells; host or cells: MCF-7
T2 sequence (P03372 1-595): T1 sequence (P03372 1-595)
Procedure, shortened: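 ERα levels assessed by Western blot (50 μg lysate protein, infrared scanner) after 24-hour exposure of MCF-7 cells to varied compound concentrations. Values reported as DC50, the concentration halving ER expression, and Dmax, the maximal ER reduction achieved across tested concentrations.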

| pIC50 (ER) | pIC50 [1] | DC50 (ERα) [nM] | Dmax (ERα) [%] | SMILES |
| --- | --- | --- | --- | --- |
| 7.30 to 8.00 | > 8.00 | < 10 | > 90 | CC/C(=C(\c1ccc(B(O)O)cc1)c1ccc(N2CCN(CCCN3CCN(c4ccc5c(c4)C(=O)N(C4CCC(=O)NC4=O)C5=O)CC3)CC2)cc1)c1ccccc1 (centres unmarked) [Compound 43, (Z)-(4-(1-(4-(4-(3-(4-(2-(2,6-dioxopiperidin-3-yl)-1,3-dioxoisoindolin-5-yl)piperazin-1-yl)propyl)piperazin-1-yl)phenyl)-2-phenylbut-1-en-1-yl)phenyl)boronic acid] |
| > 8.00 | 7.30 to 8.00 | < 10 | > 90 | CC/C(=C(/c1ccc(B(O)O)cc1)c1ccc(N2CCN(CCCN3CCN(c4ccc5c(c4)C(=O)N(C4CCC(=O)NC4=O)C5=O)CC3)CC2)cc1)c1ccccc1 (centres unmarked) [Compound 44, (E)-(4-(1-(4-(4-(3-(4-(2-(2,6-dioxopiperidin-3-yl)-1,3-dioxoisoindolin-5-yl)piperazin-1-yl)propyl)piperazin-1-yl)phenyl)-2-phenylbut-1-en-1-yl)phenyl)boronic acid] |
| > 8.00 | 7.30 to 8.00 | < 10 | > 90 | CC/C(=C(\c1ccc(B(O)O)cc1)c1ccc(N2CCN(CCCN3CCN(c4ccc5c(c4)CN(C4CCC(=O)NC4=O)C5=O)CC3)CC2)cc1)c1ccccc1 (centres unmarked) [Compound 45, (Z)-(4-(1-(4-(4-(3-(4-(2-(2,6-dioxopiperidin-3-yl)-1-oxoisoindolin-5-yl)piperazin-1-yl)propyl)piperazin-1-yl)phenyl)-2-phenylbut-1-en-1-yl)phenyl)boronic acid] |
| > 8.00 | 7.30 to 8.00 | < 10 | > 90 | CC/C(=C(/c1ccc(B(O)O)cc1)c1ccc(N2CCN(CCCN3CCN(c4ccc5c(c4)CN(C4CCC(=O)NC4=O)C5=O)CC3)CC2)cc1)c1ccccc1 (centres unmarked) [Compound 46, (E)-(4-(1-(4-(4-(3-(4-(2-(2,6-dioxopiperidin-3-yl)-1-oxoisoindolin-5-yl)piperazin-1-yl)propyl)piperazin-1-yl)phenyl)-2-phenylbut-1-en-1-yl)phenyl)boronic acid] |
| 7.30 to 8.00 | 7.30 to 8.00 | < 10 | > 90 | CC/C(=C(\c1ccc(B(O)O)cc1)c1ccc(C2CCN(CCCN3CCN(c4ccc5c(c4)C(=O)N(C4CCC(=O)NC4=O)C5=O)CC3)CC2)cc1)c1ccccc1 (centres unmarked) [Compound 47] |
| 7.30 to 8.00 | 7.30 to 8.00 | < 10 | > 90 | CC/C(=C(/c1ccc(B(O)O)cc1)c1ccc(C2CCN(CCCN3CCN(c4ccc5c(c4)C(=O)N(C4CCC(=O)NC4=O)C5=O)CC3)CC2)cc1)c1ccccc1 (centres unmarked) [Compound 48, (E)-(4-(1-(4-(1-(3-(4-(2-(2,6-dioxopiperidin-3-yl)-1,3-dioxoisoindolin-5-yl)piperazin-1-yl)propyl)piperidin-4-yl)phenyl)-2-phenylbut-1-en-1-yl)phenyl)boronic acid] |
| > 8.00 | 7.30 to 8.00 | < 10 | > 90 | CC/C(=C(\c1ccc(B(O)O)cc1)c1ccc(C2CCN(CCCN3CCN(c4ccc5c(c4)CN(C4CCC(=O)NC4=O)C5=O)CC3)CC2)cc1)c1ccccc1 (centres unmarked) [Compound 49, (Z)-(4-(1-(4-(1-(3-(4-(2-(2,6-dioxopiperidin-3-yl)-1-oxoisoindolin-5-yl)piperazin-1-yl)propyl)piperidin-4-yl)phenyl)-2-phenylbut-1-en-1-yl)phenyl)boronic acid] |
| > 8.00 | 7.30 to 8.00 | < 10 | > 90 | CC/C(=C(/c1ccc(B(O)O)cc1)c1ccc(C2CCN(CCCN3CCN(c4ccc5c(c4)CN(C4CCC(=O)NC4=O)C5=O)CC3)CC2)cc1)c1ccccc1 (centres unmarked) [Compound 50, (E)-(4-(1-(4-(1-(3-(4-(2-(2,6-dioxopiperidin-3-yl)-1-oxoisoindolin-5-yl)piperazin-1-yl)propyl)piperidin-4-yl)phenyl)-2-phenylbut-1-en-1-yl)phenyl)boronic acid] |
| 7.30 to 8.00 | 7.30 to 8.00 | < 10 | > 90 | CC/C(=C(\c1ccc(B(O)O)cc1)c1ccc(N2CCC(CCCN3CCN(c4ccc5c(c4)C(=O)N(C4CCC(=O)NC4=O)C5=O)CC3)CC2)cc1)c1ccccc1 (centres unmarked) [Compound 51, (Z)-(4-(1-(4-(4-(3-(4-(2-(2,6-dioxopiperidin-3-yl)-1,3-dioxoisoindolin-5-yl)piperazin-1-yl)propyl)piperidin-1-yl)phenyl)-2-phenylbut-1-en-1-yl)phenyl)boronic acid] |
| 7.30 to 8.00 | 7.30 to 8.00 | < 10 | > 90 | CC/C(=C(/c1ccc(B(O)O)cc1)c1ccc(N2CCC(CCCN3CCN(c4ccc5c(c4)C(=O)N(C4CCC(=O)NC4=O)C5=O)CC3)CC2)cc1)c1ccccc1 (centres unmarked) [Compound 52, (E)-(4-(1-(4-(4-(3-(4-(2-(2,6-dioxopiperidin-3-yl)-1,3-dioxoisoindolin-5-yl)piperazin-1-yl)propyl)piperidin-1-yl)phenyl)-2-phenylbut-1-en-1-yl)phenyl)boronic acid] |
| > 8.00 | 7.30 to 8.00 | < 10 | > 90 | CC/C(=C(\c1ccc(B(O)O)cc1)c1ccc(N2CCC(CCCN3CCN(c4ccc5c(c4)CN(C4CCC(=O)NC4=O)C5=O)CC3)CC2)cc1)c1ccccc1 (centres unmarked) [Compound 53, (Z)-(4-(1-(4-(4-(3-(4-(2-(2,6-dioxopiperidin-3-yl)-1-oxoisoindolin-5-yl)piperazin-1-yl)propyl)piperidin-1-yl)phenyl)-2-phenylbut-1-en-1-yl)phenyl)boronic acid] |
| > 8.00 | 7.30 to 8.00 | < 10 | > 90 | CC/C(=C(/c1ccc(B(O)O)cc1)c1ccc(N2CCC(CCCN3CCN(c4ccc5c(c4)CN(C4CCC(=O)NC4=O)C5=O)CC3)CC2)cc1)c1ccccc1 (centres unmarked) [Compound 54] |
| 7.30 to 8.00 | 7.30 to 8.00 | < 10 | > 75 | CC/C(=C(\c1ccc(B(O)O)cc1)c1ccc(N2CCN(CCCC3CCN(c4ccc5c(c4)C(=O)N(C4CCC(=O)NC4=O)C5=O)CC3)CC2)cc1)c1ccccc1 (centres unmarked) [Compound 55, (Z)-(4-(1-(4-(4-(3-(1-(2-(2,6-dioxopiperidin-3-yl)-1,3-dioxoisoindolin-5-yl)piperidin-4-yl)propyl)piperazin-1-yl)phenyl)-2-phenylbut-1-en-1-yl)phenyl)boronic acid] |
| 7.30 to 8.00 | 7.30 to 8.00 | < 10 | > 75 | CC/C(=C(/c1ccc(B(O)O)cc1)c1ccc(N2CCN(CCCC3CCN(c4ccc5c(c4)C(=O)N(C4CCC(=O)NC4=O)C5=O)CC3)CC2)cc1)c1ccccc1 (centres unmarked) [Compound 56, (E)-(4-(1-(4-(4-(3-(1-(2-(2,6-dioxopiperidin-3-yl)-1,3-dioxoisoindolin-5-yl)piperidin-4-yl)propyl)piperazin-1-yl)phenyl)-2-phenlbut-1-en-1-yl)phenyl)boronic acid] |
| 7.30 to 8.00 | 7.30 to 8.00 | < 10 | > 90 | CC/C(=C(\c1ccc(B(O)O)cc1)c1ccc(N2CCN(CCCC3CCN(c4ccc5c(c4)CN(C4CCC(=O)NC4=O)C5=O)CC3)CC2)cc1)c1ccccc1 (centres unmarked) [Compound 57, (Z)-(4-(1-(4-(4-(3-(1-(2-(2,6-dioxopiperidin-3-yl)-1-oxoisoindolin-5-yl)piperidin-4-yl)propyl)piperazin-1-yl)phenyl)-2-phenylbut-1-en-1-yl)phenyl)boronic acid] |
| 7.30 to 8.00 | 7.30 to 8.00 | < 10 | > 90 | CC/C(=C(/c1ccc(B(O)O)cc1)c1ccc(N2CCN(CCCC3CCN(c4ccc5c(c4)CN(C4CCC(=O)NC4=O)C5=O)CC3)CC2)cc1)c1ccccc1 (centres unmarked) [Compound 58] |
| 7.30 to 8.00 | 7.30 to 8.00 | 10 to 50 | > 90 | CC/C(=C(\c1ccc(B(O)O)cc1)c1ccc(N2CCN(CCN3CCN(c4ccc5c(c4)C(=O)N(C4CCC(=O)NC4=O)C5=O)CC3)CC2)cc1)c1ccccc1 (centres unmarked) [Compound 59, (Z)-(4-(1-(4-(4-(2-(4-(2-(2,6-dioxopiperidin-3-yl)-1,3-dioxoisoindolin-5-yl)piperazin-1-yl)ethyl)piperazin-1-yl)phenyl)-2-phenylbut-1-en-1-yl)phenyl)boronic acid] |
